# Assay results reported in patent US20080287531A1, “Preventive and/or Therapeutic Agent for Sleeping Disorder” (Kyowa Hakko Co., Ltd., priority 2004, published 2008).
# Several values for one entry are separate records, joined by “and”; a condition that tells them apart may be missing. Identical values can stand only once. Entries after “also recorded” stand apart in the source; their conditions may differ. Counter-ions that a name gives are not always drawn.
# Assays:
# [1] = test system: nasal congestion of allergic rhinitis; details: Phase III test, Non-patent Document 7; cited from earlier work
# [2] = test system: nasal congestion reaction; details: guinea pigs, experimental allergic rhinitis model, Non-patent Document 8; cited from earlier work
# [3] = test system: patients with sleep apnea syndrome / sleeping disorder; test: Polysonography (PSG) before and after administration of olopatadine hydrochloride; format: in vivo, human; details: for AI After therapy: apnea index by PSG; for AHI After therapy: apnea-hypopnea index by PSG; for Arousals Index After therapy: arousals index per hour by PSG
# Experimental: (§1) Olopatadine hydrochloride was orally administered at a dose of 10 mg/day [a 5-mg tablet of Allelock (registered trademark: Kyowa Hakko Kogyo Co., Ltd.) was administered everyday, twice a day, with one tablet for each administration] to three patients (patient Nos. 1 to 3) with sleep apnea syndrome complicated by allergic rhinitis and seven patients (patient Nos. 4 to 10) with sleeping disorder which is not complicated by allergic rhinitis including four patients (patient Nos. 4 to 6 and 8) with sleep apnea syndrome which is not complicated by allergic rhinitis. Before and after the administration of olopatadine hydrochloride, an apnea-hypopnea index (AHI), an apnea index (AI) and an arousals index per hour were measured respectively by polysonography (PSG) for each patient. Further, before and after the administration of olopatadine hydrochloride, a test for daytime Epworth sleepness scale was performed according to the following.
# The presence or absence of allergic rhinitis was confirmed by performing RAST (radioallergosorbent test) for 12 types of antigens [house dust, Dermatophagoides pteronyssinus, Japanese cedar, Hinoki cypress, Japanese alder, ragweed, mugwort, goldenrod, Cocksfoot (Dactylis glomerata), Candida albicans, mold and animal epithelium].
# The patients uncomplicated by allergic rhinitis had airway obstruction caused by non-atopic rhinitis.
# [4] = test system: patients with sleep apnea syndrome / sleeping disorder; test: Daytime Epworth sleepness scale (ESS) test; format: in vivo, human; details: total of 8 conditions, 10 points or less is normal, oral 10 mg/day
# Experimental: as §1
# In the following conditions 1 to 8, sleepiness was determined according to the next four levels, and seriousness of daytime sleepiness was evaluated by the total (ESS) of the points. A case in which ESS is 10 points or less is evaluated as normal.
# 2 points=sometimes sleeps
# 1. when sitting and reading a book
# 2. when watching television
# 3. when sitting in a public place without movement (for example, in a theater or a conference room) […]
# [5] = test system: patients with sleep apnea syndrome / sleeping disorder; test: Estimation of effect on chief-complaint symptoms (snore, apnea, daytime sleepiness); format: in vivo, human; details: for Estimation of effect: oral 10 mg/day
# Experimental: as §1
# The effect of the agent was estimated according to the following standard.
# Incidentally, as objective assessment, improved conditions in values of AHI, AI, arousals index and ESS were used for reference.
# [6] = oral 10 mg/day, 74-160 days, one line per patient (Nos. 4-10), sleeping disorder not complicated by allergic rhinitis
# [7] = oral 10 mg/day, 160-342 days, one line per patient (Nos. 1-3), sleep apnea syndrome complicated by allergic rhinitis
Compound,Effect on nasal congestion of allergic rhinitis [1],Action on nasal congestion reaction [2],"AI After therapy [3, 6]","AI After therapy [3, 7]","AHI After therapy ([3]; oral 10 mg/day (5-mg tablet twice a day), 160-342 days, one line per patient (Nos. 1-3), sleep apnea syndrome complicated by allergic rhinitis)","AHI After therapy [3, 6]","Arousals Index After therapy [3, 6]","Arousals Index After therapy [3, 7]","ESS After therapy ([4]; 74-160 days, one line per patient (Nos. 4-10), not complicated by allergic rhinitis)","ESS After therapy ([4]; 160-342 days, one line per patient (Nos. 1-3), complicated by allergic rhinitis)","Estimation of effect ([5]; 74-160 days, one line per patient (Nos. 4-10), sleeping disorder not complicated by allergic rhinitis)","Estimation of effect ([5]; 160-342 days, one line per patient (Nos. 1-3), sleep apnea syndrome complicated by allergic rhinitis)","Clinical effect on symptoms of sleeping disorder ([5]; patients with sleep apnea syndrome complicated by allergic rhinitis, snore, apnea, hypopnea, arousals, daytime sleepiness)","Clinical effect on symptoms of sleeping disorder ([5]; patients with sleeping disorder not complicated by allergic rhinitis, snore, apnea, hypopnea, arousals, daytime sleepiness, morning headache)",Clinical effect on symptoms of sleeping disorder ([5]; regardless of the presence or absence of complication by allergic rhinitis)
"CN(C)CC/C=C1/c2ccccc2COc2ccc(CC(=O)O)cc21 [compound 1, (Z)-11-(3-dimethylaminopropylidene)-6,11-dihydrodibenzo[b,e]oxepine-2-acetic acid]",highly improve the nasal congestion of allergic rhinitis,inhibitory action on a nasal congestion reaction,,,,,,,,,,,,,
CN(C)CC/C=C1/c2ccccc2COc2ccc(CC(=O)O)cc21 [olopatadine hydrochloride],,,3.4 and 1.2 and 3.1 and 0.8 (2×) and 0.4 and 2.8,4.3 and 1.5 and 7.6,5.8 and 2.7 and 11.1,4.2 and 2.6 and 4.5 and 1.3 and 0.9 and 1.8 and 3.4,5.9 and 2.6 and 5.3 and 2.3 and 1.8 and 2.1 and 4.9,10.3 and 4.4 and 18.9,11 points and 10 points (2×) and 8 points and 9 points (2×) and 12 points,12 points and 11 points and 9 points,Improved; also recorded: Markedly,Improved; also recorded: Markedly,improves symptoms of sleeping disorder,improves symptoms of sleeping disorder,improves symptoms of sleeping disorder
